For the molecule `O=c1[nH]c2ccccc2c(=O)c2ccccc12`, the melting point was 245 to 248 °C.

Molecule `Cc1cc(SC2CC(=O)N(c3ccccc3)C2=O)cc(C(C)(C)C)c1N` (configuration not stated) gave a melting point of 126 to 128 °C. For `O=C(Nc1cccc(Cl)c1)Nc1cnnc(Cl)c1` the value was 240 to 248 °C. Take `N#Cc1ccc2c(c1)CN1C(=Nc3cccnc3)SC[C@@H]1C2`: the melting point turned out to be 172 °C.

Take `CCOc1cc(Oc2ccc(C(F)(F)F)cn2)ccc1CCCOc1nn(CC)cc1CC(=O)O`: the melting point lay in the range of 82 to 83 °C. In turn, `COc1cc(OC)c2c(c1)S(=O)(=O)N(COC(=O)c1c(Cl)cccc1Cl)C2=O` came in with a melting point of 200 to 201 °C. `CN1c2nnnn2-c2ccc(Cl)cc2C1c1ccccc1` (configuration not stated) returned a melting point of 280 °C. As for `C=CCOC(=O)c1ccc(NC(=O)C(=NO)c2ccc3c(c2)C(C)(C)CCC3(C)C)cc1`, the figure is 176 to 177 °C.

With `Cc1cc(C)c([N+](=O)[O-])cc1N1CCCCC1=O`, the melting point lay within 134 to 135 °C.

Regarding `COc1c(C2CCN(CCCCNC(=O)c3c(C)nc(-c4ccc(Cl)cc4)n3C)CC2)ccc2c1CCCC2`, the melting point is 150 °C. For `CCCOc1ccccc1-c1nc(NCCCO)cc(=O)[nH]1` the value was 148 °C. The molecule `C[C@@H]1O[C@](/C=C/C2CC2)(C(F)(F)F)c2cc(Cl)ccc2NC1=O` (relative stereo) came in with a melting point of 171 to 172 °C. As for `CC1(C)CC(NC(=O)c2cc([N+](=O)[O-])cc([N+](=O)[O-])c2)CC(C)(C)N1`, the figure is 220 to 222 °C.

`O=C(c1ccccc1)c1cc(Oc2cc(Cl)cc(Cl)c2)c2c(=O)c3ccccc3sc2c1` gave a melting point of 160 to 163 °C.

As to `CCc1nc2c(N)nc3ccccc3c2n1CCCSC`, the melting point lay within 210 to 212 °C. For `Cc1cc(NCCO)c2[nH]nc(-c3ccc(Cl)cc3)c2n1` the value was 222 to 224 °C; for `CNS(=O)(=O)c1cccc(OC)c1C#N`, 121 to 128 °C; for `COc1ccc2nc(C)c(S(N)(=O)=O)n2n1`, 251 °C. As for `Cc1ccc(-c2ccccc2C(=O)NCCC#N)cc1`, the figure is 102 to 104 °C. As for `CCCCCCCCC(SCCCCCC)C(=O)Nc1c(F)ccc2ncccc12` (configuration not stated), the figure is 74 to 75 °C; as for `CN(CCOc1ccc([N+](=O)[O-])cc1)CCc1ccc([N+](=O)[O-])cc1`, 74 °C; as for `CC(C)C1=NCCSC1=NOC(=O)N(C)SN1CCOCC1`, 127 to 128 °C.

`Cc1oc(-c2ccccc2)nc1COc1ccc(Cn2cc(CCC(=O)O)c(Oc3ccc(C(F)(F)F)cn3)n2)cc1` registered a melting point of 107 to 108 °C. For `Fc1ccc2[nH]cc(CC3CCN(CCOc4ccc5c(c4)CCC5)CC3)c2c1` the value was 150 to 152 °C.

`Cc1c(Cl)nc(=O)n(C)c1N` came in with a melting point of 254 to 256 °C.

In turn, `CN(C)n1cnnc1NN=Cc1c(Cl)cccc1Cl` yielded a melting point of 189 °C. As for `Nc1ccc(C(c2ccccc2)(c2ccc(N)cc2)C(F)(F)F)cc1`, the figure is 217 to 218 °C; as for `CCOCn1cnc2c(N)nc3ccccc3c21`, 255 to 261 °C; as for `CCCCCCC(C)OC(=O)c1ccc(-c2ccc(-c3ccc(C(=O)OC(C)CCCCCC)cc3)cc2)cc1` (configuration not stated), 81 to 82 °C.

Molecule `COC(=O)CN1Cc2cc(C(=O)c3cccnc3)ccc2N=C1SC` displayed a melting point of 114 °C. In the case of `CCN(CC)C(=S)n1cc(F)c(/N=C/N(C)C)nc1=O`, the melting point was in the range of 118 to 123 °C. As for `CC(C)C(OC(=O)NC(C)(Cc1ccccc1)C(=O)NC(CO)c1ccccc1)c1ccccc1` (configuration not stated), the figure is 124 to 130 °C.

In turn, `COc1ccccc1NC(=O)Nc1nc(Nc2ccccc2-c2ccccc2)nc(N(CC(=O)O)Cc2ccc(F)cc2)n1` displayed a melting point of 120 to 125 °C. The molecule `COc1cc(N)c(Cl)cc1C(=O)CCC1CCN(C(=O)OC(C)(C)C)CC1` showed a melting point of 133 to 134 °C.

With `O=c1cc(-c2ccncn2)nc2n1CCCN2`, the melting point was 268 to 272 °C. For the molecule `CCOC(=O)c1c(C)nn(C)c1CS(=O)(=O)NC(=O)Nc1nc(OC)cc(OC)n1`, the melting point was determined as 190 °C. For `CCCOc1ccc(F)c2c(=O)c(-c3ccc(C(=O)N4CCOCC4)cc3)c[nH]c12` the value was 234 to 236 °C.

`CC(=O)Nc1cc2c(cc1C#N)[C@@H](N1CCCC1)[C@H](O)C(C)(C)O2` (relative stereo) gave a melting point of 175 to 176 °C. As for `COc1ccc(-c2cc(F)c(F)cc2-c2ccc(S(C)(=O)=O)cc2)cc1F`, the figure is 159 to 160 °C. For `CCCc1cnc2c(c1)C(=O)OC2=O` the value was 42 to 44 °C. On to `CCOc1c(OC)c(OC)cc(C(=O)O)c1-c1c(C(=O)O)cc(OC)c2c1OCO2`, for which the melting point is 236 to 237 °C.

For the molecule `Cn1c([N+](=O)[O-])cnc1COc1ccc([N+](=O)[O-])cc1C(F)(F)F`, the melting point is 153 °C. For `N#Cc1nn(-c2c(Cl)cc(C(F)(F)F)cc2Cl)c(N)c1SC(F)(F)C(F)(F)F` the value was 134 to 136 °C; for `Cc1ccc(OCCCN2CCN(c3ccc(Cl)nn3)CC2)cc1`, 129 to 131 °C. As for `CS(=O)(=O)Nn1c(=O)[nH]c2cc(C(F)(F)F)c(N3CCC3)cc2c1=O`, the figure is 266 to 283 °C. For `CC(C)(C)OC(=O)NC12CC3CC(C1)CC(OS(C)(=O)=O)(C3)C2` the value was 100 to 102 °C; for `CCC(=O)c1ccc(SC)cc1`, 60 to 61 °C. Molecule `COc1cccc(CNC(=O)c2cc3c(=O)n(CCC(=O)c4ccccc4)c(=O)n(C)c3s2)c1` showed a melting point of 188 to 191 °C. For `CCCCn1nc(C)c(C(=O)OC)c1Cc1ccc(-c2ccccc2S(N)(=O)=O)cc1` the value was 49 to 54 °C; for `O=c1c(CCCc2ccoc2)cc2cccnc2n1-c1cccc([N+](=O)[O-])c1`, 185 to 186 °C. For `CCCCc1nc2c(N)nc3ccccc3c2n1CCOCCN1CCCS1(=O)=O` the value was 152 to 154 °C; for `CCC(NC(=NC#N)Nc1ccc(N)nc1)c1ccccc1` (configuration not stated), 178 °C. As for `Cc1nc2cccc(CCN3CCC(c4noc5cc(F)ccc45)CC3)c2c(=O)[nH]1`, the figure is 164 to 165 °C; as for `CCc1cc(-c2ccc(F)cc2)c(O)cc1OCCCCCC(c1ccc(OCC(=O)O)cc1)c1nnn[nH]1` (configuration not stated), 102 to 104 °C; as for `CCOC(=O)c1c(OCC)nsc1NC(=O)NC`, 195 to 196 °C. In turn, `CC(=O)OCc1ccc2cc(C(=O)O)ccc2c1` displayed a melting point of 180 to 190 °C.

On to `COc1ccc(C2=NN(CCCCCCNC(=O)c3ccccc3C(N)=O)C(=O)[C@H]3CC=CC[C@@H]23)cc1OC` (relative stereo), for which the melting point is 104 to 105 °C. As for `CCOC(=O)C1=C(COCc2ccc(CN(C)C)s2)NC(C)=C(C(=O)OC)C1c1ccccc1Cl` (configuration not stated), the figure is 81 to 83 °C. For the molecule `CCOC(=O)C1(S(=O)(=O)c2ccc(OC)cc2)CCN(Cc2ccc(-c3ccccc3)cc2)CC1`, the melting point is 176 to 178 °C. For the molecule `COC(=O)c1c[nH]c(C(=O)c2cc(OC)cc(OC)c2)c1`, the melting point lay within 115 to 120 °C. With `O=C(O)Cc1c(C(=O)c2ccc(O)cc2)[nH]c2cc(Cl)ccc12`, the melting point was 231 to 234 °C. As for `O=C(COc1ccc(-c2ccccc2Cl)cn1)Nc1cscc1C(=O)O`, the figure is 218 to 223 °C; as for `O=C(O)c1cn(C2CC2)c(-c2ccc3c(c2)OCO3)cc1=O`, 211 to 212 °C. The molecule `COc1ccc(Br)c2c1C[C@H](N(Cc1ccccc1)Cc1ccccc1)CC2` displayed a melting point of 100 to 101 °C. For `COc1ccc2[nH]cc(-c3cc4c(OC)ccnc4[nH]3)c2c1` the value was 294 to 295 °C. As for `O=C(O)CNC(=O)c1ccc([N+](=O)[O-])c(F)c1`, the figure is 136 to 138 °C; as for `CCCC[C@H](NC(=O)[C@H](CCC(=O)OC(C)(C)C)NC(=O)OCc1ccccc1)C(=O)CSCc1ccco1`, 78 to 79 °C; as for `NC(=O)c1c(N)cccc1OCc1ccccc1`, 158 to 160 °C. With `CCONC(O)(CC)C1C(=O)C=C(CC)OC1=O` (configuration not stated), the melting point lay within 63 to 64 °C. For `COc1cc(Nc2c(C#N)cnc3cc(/C=C/CCN4CCCCC4)c(OC)cc23)c(Cl)cc1Cl` the value was 140 to 142 °C.

`CCOc1ccc(-c2[nH]c(-c3ccc([N+](=O)[O-])cc3)nc2C(=O)O)cc1` displayed a melting point of 148 to 152 °C. For `Cc1ccc(C(=O)Nc2ccccc2)cc1NC(=O)c1cc(Cl)cc(Cl)c1` the value was 202 to 205 °C; for `CC(NC(=O)Cc1cc(F)cc(F)c1)C(=O)NC1C(=O)N(C)C(c2ccccc2)c2ccccc21` (configuration not stated), 115 °C. As for `CN1C(=O)C(C)(C)C(=O)Nc2ccc(C#N)cc21`, the figure is 250 to 251 °C; as for `CC(=O)c1cc2c(c(O)c1O)OC(C)(C)CC2C` (configuration not stated), 153 to 154 °C.

`CCOC(=O)C(=O)Nc1cccc(NC(=O)C(=O)OCC)c1` yielded a melting point of 150 °C. As for `CCOCCOc1cccc2oc(-c3ccccc3)cc(=O)c12`, the figure is 94 to 96 °C; as for `CS(=O)(=O)c1ccccc1S`, 57 °C. For `CCC#COc1ccc(S(=O)(=O)NC(CSCc2ccccc2)C(=O)NO)cc1` (configuration not stated) the value was 137 to 138 °C; for `NC(=O)Cc1cc(Cl)ccc1[N+](=O)[O-]`, 115 to 116 °C; for `CCCCCCCN1CCN(C(=O)C2CCC(c3cccnc3)N2)CC1` (configuration not stated), 138 to 143 °C.

In turn, `Nc1ccc(-c2noc(-c3cnc4ccc(-c5ccc(Cl)cc5)cn34)n2)cn1` gave a melting point of 273 °C. As for `Cc1ccc(-c2ccc3c(c2)CCc2nn(-c4ccccn4)c(O)c2-3)cc1`, the figure is 177 to 178 °C; as for `C#CCNC(=O)c1cccc(-c2ccc3cnc(Nc4ccc(N5CCN(C)CC5)cc4)nn23)c1`, 185 to 187 °C. For `CC(C)CC(=O)Nc1cccc(-c2ccnc3c(-c4cccc(C=O)c4)cnn23)c1` the value was 163 to 165 °C; for `CN(C)C=C(C#N)C(=O)c1ccco1`, 117 to 125 °C; for `Cc1cn(C2COC(CO)C(O)C2)c(=O)[nH]c1=O` (configuration not stated), 87 to 89 °C.

As usually defined, the melting point is the temperature, or range, at which the solid turns liquid.

The record behind these values is a melting point compilation (Tetko et al.; mined from patent text by program, amines drawn as free bases though some values may be those of a salt).
